Experimental data reported in US8168650B2, “Therapeutic uses of bicyclic ligands of sigma 2 receptor” (priority 2006, dated 2012).
Entries after “also recorded” stand apart in the source; their conditions may differ. Counter-ions that a name gives are not always drawn. Like-named read-outs stand apart in the source and are kept apart here.

Experiments:
σ2 receptor = biological target: T1, σ2 receptor (Rattus norvegicus, UniProt Q5U3Y7); experiment: σ2 receptor binding assay, [3H]DTG or [3H]RHM-1; details: for σ1/σ2 Ratio: Ki for σ1/Ki for σ2
T1 construct: from tissue; host or cells: rat liver membrane homogenates
T1 sequence (Q5U3Y7 1-176): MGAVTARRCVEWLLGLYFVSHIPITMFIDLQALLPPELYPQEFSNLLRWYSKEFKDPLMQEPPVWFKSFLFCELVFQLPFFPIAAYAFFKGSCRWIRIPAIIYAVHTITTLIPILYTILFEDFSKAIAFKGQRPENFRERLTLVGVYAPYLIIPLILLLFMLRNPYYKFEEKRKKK
Experimental: (§1) In vitro binding studies were conducted in order to determine the affinity of the target compounds at σ1 and σ2 receptors.
(§2) In this example, test compounds were dissolved in N,N-dimethylformamide (DMF), dimethylsulfoxide (DMSO) or ethanol and then diluted in 50 mM Tris-HCl, pH 7.4 buffer containing 150 mM NaCl and 100 mM EDTA. Membrane homogenates were made from guinea pig brain for σ1 binding assays and rat liver for σ2 binding assays. Membrane homogenates were diluted with 50 mM Tris-HCl buffer, pH 8.0, and incubated at 25° C. in a total volume of 150 μL in 96-well plates with the radioligand and test compounds with concentrations ranging from 0.1 nM to 10 μM. After incubation was completed, the reactions were terminated by the addition of 150 μL of ice-cold wash buffer (10 mM Tris-HCl, 150 mM NaCl, pH 7.4) using a 96-channel transfer pipette (Fisher Scientific, Pittsburgh, Pa.), and the samples harvested and filtered rapidly through 96-well fiberglass filter plate (Millipore, Billerica, Mass.) that had been presoaked with 100 μL of 50 mM Tris-HCl buffer, pH 8.0, for 1 h. Each filter was washed three times with 200 μL of ice cold wash buffer.
(§3) Ki values were calculated using the method of Cheng and Prusoff20 and represent mean values±SEM.

σ1 receptor [1] = biological target: T2, σ1 receptor (Cavia porcellus, UniProt Q60492); experiment: biochemical
T2 sequence (Q60492 whole entry): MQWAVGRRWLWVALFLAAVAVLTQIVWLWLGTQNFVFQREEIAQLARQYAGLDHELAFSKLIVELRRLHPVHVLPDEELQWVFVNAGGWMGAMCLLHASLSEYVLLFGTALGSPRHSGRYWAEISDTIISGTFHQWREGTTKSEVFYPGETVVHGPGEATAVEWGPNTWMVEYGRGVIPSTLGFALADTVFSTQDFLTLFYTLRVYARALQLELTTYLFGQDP
Experimental: as §1, §2, §3

σ1 receptor [2] = biological target: T2, σ1 receptor
Experimental: as §1, §2, §3

EMT-6 cells = details: EMT-6, 1 h pre-incubation with inhibitor (100 μM), MTS assay
Experimental: To determine the effect of blocking the caspase-dependent apoptotic pathway on sigma ligand-induced cell killing, the caspase inhibitors, Z-VAD-FMK or Z-DEVD-FMK (Calbiochem, San Diego, Calif.) were added to the culture medium 1 hour before the sigma ligands, and the MTS assay performed as described above.

[3] = system: pancreatic cancer cell lines (Panc-02, CFPAC-1, AsPC-1, Panc-1); experiment: Apoptosis in pancreas cancer cell lines (TUNEL / cleaved caspase-3, flow cytometry); type: cell-based, mouse, human; details: 24 hours incubation
Experimental: Tumor cells were seeded at a density of approximately 0.2×10^6 cells per well in 12-well plates in 1.0 ml culture medium. Cells were split and pre-incubated at 37° C. in humidified 5% CO2 for more than 24 hours (Panc-02) and 48 hours (CFPAC-1, AsPC-1, Panc-1) to insure uniform growth conditions. Compounds were dissolved in DMSO and added to the culture medium at the concentrations indicated. The final concentration of DMSO in the cell culture medium was less than 1%. The cells were then incubated for 24 hours at 37° C. in humidified 5% CO2. The extent of apoptosis was subsequently measured as previously reported (Guelen, L., et al., Oncogene 2004, 23: 1153-1165). Briefly, staining was performed on trypsin-EDTA treated cultures that had been fixed with 1% paraformaldehyde and 90% methanol. Cell pellets were resuspended in TUNEL reagent (APO-BRDU kit, San Diego, Calif.) or cleaved caspase-3 antibody (Cell Signaling Technology, Inc. Boston, Mass.) and incubated overnight at room temperature (TUNEL) or 4° C. (cleaved caspase-3). After washing, cells were resuspended in fluorescein antibody or 7-AAD buffer and incubated for 1 hour at room temperature. Cell-associated fluorescence was determined using a flow cytometry (FACScan, BD Biosciences) and analyzed with CellQuest software (BD Biosciences).
At the highest dose tested (10 μM), all sigma-2 receptor ligands induced an additional 10-20% of the cells to undergo apoptosis (FIG. 15A). […] The pan-caspase inhibitor (Z-VAD-fmk) and caspase-3/7 inhibitor (DEVD-CHO) prevented sigma-2 receptor ligand-induced apoptosis in panc-02 cells, while the caspase-1 inhibitor (YVAD-CHO) had no effect (FIG. 15B).

[4] = Ki σ2, inhibiting binding of [3H]DTG or [3H]RHM-1 to rat liver homogenates, mean ± SEM
[5] = inhibiting binding of [3H]DTG or [3H]RHM-1 to rat liver homogenates, mean ± SEM, read-out: Ki σ2

Row | Compound | σ1/σ2 Ratio (σ2 receptor) | Ki (σ2 receptor; [4]) [nM] | Ki (σ1 receptor [1]) [nM] | other results
1 | COc1ccc(C)cc1NC(=O)OC1CC2CCCC(C1)N2CCCCNCc1ccc(Br)cc1 (stereo not drawn) [Compound 2d, N-(9-(4-(4′-Bromobenzylamino)butyl)-9-azabicyclo[3.3.1]nonan-3α-yl)-N-(2-methoxy-5-methylphenyl)carbamates] | 0.42 | 4.07 ± 0.61 | 1.7 ± 0.28 | 
2 | N-(9-(4-(40-Iodobenzoylamino)hexyl)-9-azabicyclo[3.3.1]nonan-3α-yl)-N-(2-methoxy-5-methylphenyl)carbamate oxalate [Compound 4d] | 1.40 |  |  | Ki (σ2 receptor; [5]): 1010 nM; Ki (σ1 receptor [2]): 1410 ± 318 nM
3 | COc1ccc(C)cc1NC(=O)OC1CC2CCCC(C1)N2CCCCNCc1ccc(I)cc1 (stereo not drawn) [Compound 2f, N-(9-(4-(4′-Iodobenzylamino)butyl)-9-azabicyclo[3.3.1]nonan-3α-yl)-N-(2-methoxy-5-methylphenyl)carbamate oxalate] | 0.08 | 4 ± 0.54 | 0.34 ± 0.03 | 
4 | COc1ccc(C)cc1NC(=O)OC1CC2CCCC(C1)N2CCCCCCNC(=O)c1ccc(Br)cc1 (stereo not drawn) [Compound 4b, N-(9-(4-(4′-Bromobenzoylamino)hexyl)-9-azabicyclo[3.3.1]nonan-3α-yl)-N-(2-methoxy-5-methylphenyl)carbamate oxalate] | 2.84 |  | 2040 ± 98 | Ki (σ2 receptor; read-out: Ki σ2): 719 ± 84 nM
5 | N-(9-(4-(4′-Fluorobenzoylamino)hexyl)-9-azabicyclo[3.3.1]nonan-3α-yl)-N-(2-methoxy-5-methylphenyl)carbamate oxalate [Compound 4c] | 2.50 |  |  | Ki (σ2 receptor; [5]): 497 ± 103 nM; Ki (σ1 receptor [2]): 1240 ± 212 nM
6 | COC(=O)CC[C@H](NC(=O)[C@H](CC(=O)OC)NC(=O)OCc1ccccc1)C(=O)N[C@H](C(=O)N[C@@H](CC(=O)OC)C(=O)CF)C(C)C [Z-DEVD-FMK] |  |  |  | effect on cell death / cytotoxic effects induced by the three σ2 selective ligands (EMT-6 cells): partially blocked; also recorded: partially, but not completely, blocked
7 | COc1ccc(C)cc1NC(=O)OC1CC2CCCC(C1)N2CCCCCCNCc1cccc(Br)c1 (stereo not drawn) [Compound 3a, N-(9-(6-(3′-Bromobenzylamino)hexyl)-9-azabicyclo[3.3.1]nonan-3α-yl)-N-(2-methoxy-5-methylphenyl)carbamate oxalate] | 12.57 | 8.94 ± 0.61 | 112 ± 4.8 | 
8 | COc1ccc(C)cc1NC(=O)OC1CC2CCCC(C1)N2CCCCN (stereo not drawn) [Compound 1a, N-(9-(4-Aminobutyl)-9-azabicyclo[3.3.1]nonan-3α-yl)-N-(2-methoxy-5-methyl-phenyl)carbamate hydrochloride] | 193 | 12.9 ± 0.46 | 2490 ± 271 | affinity and selectivity for σ2 versus σ1 receptors (in words) (σ2 receptor): moderate affinity and selectivity
9 | COc1ccc(C)cc1NC(=O)O[C@H]1C[C@H]2CCC[C@@H](C1)N2CCCCNCc1cccc(I)c1 [Compound 2c, N-(9-(4-(3′-Iodobenzylamino)butyl)-9-azabicyclo-[3.3.1]nonan-3α-yl)-N-(2-methoxy-5-methylphenyl)carbamate oxalate] | 52.77 | 1.21 ± 0.14 | 63.9 ± 5.61 | 
10 | COc1ccc(C)cc1NC(=O)OC1C[C@H]2CCC[C@@H](C1)N2CCCCCCN (stereo partly shown) [SV119] | 273 |  |  | Ki (σ2 receptor; [5]): 5.2 nM; Ki (σ1 receptor [2]): 1420 nM
11 | COc1ccc(C)cc1NC(=O)OC1CC2CCCC(C1)N2CCCCCCNCc1ccc(Br)cc1 (stereo not drawn) [Compound 3d, N-(9-(6-(4′-Bromobenzylamino)hexyl)-9-azabicyclo[3.3.1]nonan-3α-yl)-N-(2-methoxy-5-methylphenyl)carbamate oxalate] | 4.35 | 9.93 ± 1.61 | 43.2 ± 2.88 | 
12 | COc1ccc(C)cc1NC(=O)OC1CC2CCCC(C1)N2CCCCNCc1cccc(Br)c1 (stereo not drawn) [Compound 2a, N-(9-(4-(3′-Bromobenzylamino)butyl)-9-azabicyclo[3.3.1]nonan-3α-yl)-N-(2-methoxy-5-methylphenyl)carbamate oxalate] | 21.66 | 3.06 ± 0.41 | 66.3 ± 5.3 | 
13 | O=C(CCCN1CCC(O)(c2ccc(Cl)cc2)CC1)c1ccc(F)cc1 [Haloperidol, reference compound] |  |  |  | apoptosis in all pancreas cancer cell lines tested [3]: dose-dependent apoptosis
14 | COc1ccc(C)cc1NC(=O)OC1CC2CCCC(C1)N2CCCCCCNCc1cccc(F)c1 (stereo not drawn) [Compound 3b, N-(9-(6-(3′-Fluorobenzylamino)hexyl)-9-azabicyclo[3.3.1]nonan-3α-yl)-N-(2-methoxy-5-methylphenyl)carbamate oxalate] | 0.09 | 4.85 ± 0.49 | 0.46 ± 0.05 | 
15 | COc1ccc(C)cc1NC(=O)OC1CC2CCCC(C1)N2CCCCCCNC(=O)c1ccc(Cl)cc1 (stereo not shown) [Compound 4a] | 392 | 3.56 ± 0.08 | 1400 ± 64 | affinity and selectivity for σ2 versus σ1 receptors (in words) (σ2 receptor): high affinity and selectivity
16 | COc1ccc(C)cc1NC(=O)OC1CC2CCCC(C1)N2CCCCCCNCc1ccc(F)cc1 (stereo not drawn) [Compound 3e, N-(9-(6-(4′-Fluorobenzylamino)hexyl)-9-azabicyclo[3.3.1]nonan-3α-yl)-N-(2-methoxy-5-methylphenyl)carbamate oxalate] | 0.01 | 70.9 ± 4.38 | 1 ± 0.26 | 
17 | COc1ccc(C)cc1NC(=O)OC1CC2CCCC(C1)N2CCCCCCCCCCN (stereo not drawn) [Compound 1c, N-(9-(10-Aminodecyl)-9-azabicyclo[3.3.1]nonan-3α-yl)-N-(2-methoxy-5-methylphenyl)carbamate hydrochloride] | 19 |  |  | affinity and selectivity for σ2 versus σ1 receptors (in words) (σ2 receptor): high affinity at σ2 receptor but low selectivity; Ki (σ2 receptor; [5]): 7.07 ± 1.27 nM; Ki (σ1 receptor [2]): 134 ± 11.9 nM
18 | COc1ccc(C)cc1NC(=O)OC1CC2CCCC(C1)N2CCCCNCc1cccc(F)c1 (stereo not drawn) [Compound 2b, N-(9-(4-(3′-Fluorobenzylamino)butyl)-9-azabicyclo[3.3.1]nonan-3α-yl)-N-(2-methoxy-5-methylphenyl)carbamate oxalate] | 0.07 | 4.13 ± 0.33 | 0.3 ± 0.05 | 
19 | COc1ccc(C)cc1NC(=O)OC1CC2CCCC(C1)N2CCCCNCc1ccc(F)cc1 (stereo not drawn) [Compound 2e, N-(9-(4-(4′-Fluorobenzylamino)butyl)-9-azabicyclo[3.3.1]nonan-3α-yl)-N-(2-methoxy-5-methylphenyl)carbamate oxalate] | 0.76 | 29.1 ± 3.48 | 22.1 ± 1.58 | 
20 | COc1ccc(C)cc1NC(=O)O[C@H]1C[C@H]2CCC[C@@H](C1)N2CCCCCCN.Cl [Compound 1b, N-(9-(6-Aminohexyl)-9-azabicyclo[3.3.1]nonan-3α-yl)-N-(2-methoxy-5-methyl-phenyl)carbamate hydrochloride] | 273 |  |  | affinity and selectivity for σ2 versus σ1 receptors (in words) (σ2 receptor; hydrochloride): highest affinity and selectivity; also recorded: moderate affinity and selectivity; Ki (σ2 receptor; [5]): 5.19 ± 0.8 nM; Ki (σ1 receptor [2]): 1420 ± 439 nM
21 | COc1ccc(C)cc1NC(=O)OC1CC2CCCC(C1)N2CCCCCCNS(=O)(=O)c1cccc2c(N(C)C)cccc12 (stereo not drawn) [Compound 9, N-(9-(6-(5-Dimethylamino-1-naphthalenesulfonamido))hexyl)-9-azabicyclo[3.3.1]-nonan-3α-yl-N-(2-methoxy-5-methylphenyl)carbamate oxalate] | 85.43 |  | 12600 | affinity and selectivity for σ2 versus σ1 receptors (in words) (σ2 receptor): moderate affinity and selectivity; Ki (σ2 receptor; read-out: Ki σ2): 148 ± 8.85 nM
22 | COc1ccc(C)cc1NC(=O)OC1CC2CCCC(C1)N2CCCCCCNCc1ccc(I)cc1 (stereo not drawn) [Compound 3f, N-(9-(6-(4′-Iodobenzylamino)hexyl)-9-azabicyclo[3.3.1]nonan-3α-yl)-N-(2-methoxy-5-methylphenyl)carbamate oxalate] | 0.02 | 35.9 ± 1.5 | 0.65 ± 0.09 | 
23 | COc1ccc(C)cc1NC(=O)O[C@H]1C[C@H]2CCC[C@@H](C1)N2CCCCCCNCc1cccc(I)c1 [Compound 3c, N-(9-(6-(3′-Iodobenzylamino)hexyl)-9-azabicyclo-[3.3.1]nonan-3α-yl)-N-(2-methoxy-5-methylphenyl)carbamate oxalate] | 0.02 | 32.7 ± 5.93 | 0.56 ± 0.06 | 
